# Experimental data: article PMC3363326 (ACS medicinal chemistry letters, 2012)
# Tests used:
# S. aureus UPPS = molecular target: T1, S. aureus UPPS (Staphylococcus aureus, UniProt P60477); assay: S. aureus UPPS inhibition; type: biochemical
# T1 sequence (P60477 1-256): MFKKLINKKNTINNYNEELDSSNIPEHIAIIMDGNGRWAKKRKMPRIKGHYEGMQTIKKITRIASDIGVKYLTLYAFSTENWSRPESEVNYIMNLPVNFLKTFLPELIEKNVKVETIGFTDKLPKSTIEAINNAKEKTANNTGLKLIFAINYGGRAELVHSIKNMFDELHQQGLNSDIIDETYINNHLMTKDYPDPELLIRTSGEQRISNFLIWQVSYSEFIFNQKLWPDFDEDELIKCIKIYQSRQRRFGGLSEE
# [1] = system: USA300 (MRSA) strain of S. aureus; assay: S. aureus cell growth inhibition; type: cell-based; conditions: Staphylococcus aureus, MRSA|USA300, read-out: MIC90 against S. aureus
# E. coli = E. coli cell growth inhibition; type: cell-based; conditions: DH5α, K12
# MCF-7 = assay: Toxicity against human cell line; type: cell-based
# [2] = system: staphyloxanthin pigment formation; conditions: read-out: carotenoid pigment formation in cells IC50; cited from earlier work
# S. aureus CrtM [3] = molecular target: T2, S. aureus CrtM (Staphylococcus aureus, UniProt A9JQL9); conditions: read-out: CrtM IC50; cited from earlier work
# T2 sequence (A9JQL9 whole entry): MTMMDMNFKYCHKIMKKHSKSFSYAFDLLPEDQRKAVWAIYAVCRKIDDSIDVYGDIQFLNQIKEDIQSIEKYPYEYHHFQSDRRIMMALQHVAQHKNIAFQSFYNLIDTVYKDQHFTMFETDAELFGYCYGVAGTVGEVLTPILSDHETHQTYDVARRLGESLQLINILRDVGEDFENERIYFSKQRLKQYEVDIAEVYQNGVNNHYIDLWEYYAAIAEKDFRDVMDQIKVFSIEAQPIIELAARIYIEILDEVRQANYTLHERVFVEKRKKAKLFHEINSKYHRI
# FPPS = conditions: background statement, no reference given; cited from earlier work
# bacteria = conditions: background statement, no reference given; cited from earlier work
# S. aureus CrtM [4] = molecular target: T2, S. aureus CrtM; assay: S. aureus CrtM; type: biochemical
smiles,measurement,setting,value
CCCCCCCCOc1ccc(C(=O)/C=C(\O)C(=O)O)cc1 [Compound 45],Ki,S. aureus UPPS,0.67 µM
same,MIC90,[1],0.25 to 0.5 µg/mL
same,activity against E. coli,E. coli,very little activity
same,activity against human cell lines,MCF-7,very little activity
O=P(O)(O)C(CCCc1cccc(Oc2ccccc2)c1)S(=O)(=O)O (stereo not shown) [Compound 3],IC50,[2],~0.11 µM
same,IC50,S. aureus CrtM [3],~7.9 µM
O=P(O)(O)C(O)(Cn1ccnc1)P(=O)(O)O [zoledronate],FPPS inhibition potency,FPPS,"potent, low nM inhibitors"
same,antibacterial activity,bacteria,little antibacterial activity
CCCCCCCCCCOc1cccc(C(=O)/C=C(\O)C(=O)O)c1 [Compound 44],Ki,S. aureus UPPS,0.23 µM
CCCCCCCCCCOc1cccc(Cn2ccc(O)c(C(=O)O)c2=O)c1 [Compound 42],"CrtM inhibition, in words",S. aureus CrtM [4],no activity
